From the supplement of paper PMC4862054

How the values were obtained:
[1] = system: DU-4475; assay: drug sensitivity score (DSS), CellTox Green (DSS (AUC-based score)); higher = stronger drug effect (viability inhibition or cytotoxicity); extreme values may be limits of the assay; details: incubation time: 72 h
How it was run: (§1)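 Each compound occupied 5 concentrations in 10-fold steps over its own 10,000-fold range in 384-well plates, into which breast cancer cell lines were seeded as 20 µl suspension. Following 72 h of incubation, CellTox Green fluorescence (485/520 nm) was measured, and CellTiter-Glo luminescence was measured after 10 min at room temperature. Plates were individually normalised to 0.1 % DMSO and a positive kill control. From the area under the fitted dose-response curve, a drug sensitivity score was calculated.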

[2] = system: MDA-MB-453; assay: as above; details: incubation time: 72 h
How it was run: as §1

[3] = system: CAL-148; assay: as above; details: incubation time: 72 h
How it was run: as §1

[4] = system: HCC1599; assay: as above; details: incubation time: 72 h
How it was run: as §1

[5] = system: MFM-223; assay: as above; details: incubation time: 72 h
How it was run: as §1

[6] = system: HDQ-P1; assay: as above; details: incubation time: 72 h
How it was run: as §1

[7] = system: MDA-MB-436; assay: as above; details: incubation time: 72 h
How it was run: as §1

[8] = system: HCC1143; assay: as above; details: incubation time: 72 h
How it was run: as §1

[9] = system: MCF-10A; assay: as above; details: incubation time: 72 h
How it was run: as §1

[10] = system: MDA-MB-468; assay: as above; details: incubation time: 72 h
How it was run: as §1

[11] = system: BT-549; assay: as above; details: incubation time: 72 h
How it was run: as §1

[12] = system: CAL-51; assay: as above; details: incubation time: 72 h
How it was run: as §1

[13] = system: BT-474; assay: as above; details: incubation time: 72 h
How it was run: as §1

[14] = system: HCC1937; assay: as above; details: incubation time: 72 h
How it was run: as §1

[15] = system: CAL-120; assay: as above; details: incubation time: 72 h
How it was run: as §1

[16] = system: MDA-MB-231; assay: as above; details: incubation time: 72 h
How it was run: as §1

[17] = system: Hs578T; assay: as above; details: incubation time: 72 h
How it was run: as §1

[18] = system: DU-4475; details: 72 h
How it was run: (§2)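 Compound dissolved in 5 µl medium was placed in 384-well plates before 20 µl of breast cancer cell suspension was added, and the plates were incubated for 72 h. Cells then received 2.5 µl CellTiter-Blue for 2 h at 37 °C, and fluorescence was read at 560/590 nm. EC50 values come from percent-inhibition dose-response fits that were censored at the highest concentration, with plates normalised to vehicle and a positive kill control and rows with a zero drug sensitivity score excluded.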

[19] = system: MDA-MB-453; details: 72 h
How it was run: as §2

[20] = system: CAL-148; details: 72 h
How it was run: as §2

[21] = system: CAL-85-1; details: 72 h
How it was run: as §2

[22] = system: HDQ-P1; details: 72 h
How it was run: as §2

[23] = system: CAL-51; details: 72 h
How it was run: as §2

[24] = system: DU-4475; details: 72 h; remark: listed apart in the source
How it was run: (§3)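 EC50 was fitted from dose-response curves and censored at the highest concentration tested. To build those curves, breast cancer cell lines (20 µl suspension) were seeded into 384-well plates containing compound at 5 concentrations in 10-fold steps over a compound-specific 10,000-fold range and incubated for 72 h. Readouts were CellTox Green fluorescence (485/520 nm) for cell death and then CellTiter-Glo luminescence for viability, with each plate normalised to 0.1 % DMSO and a positive kill control.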

[25] = system: MFM-223; details: 72 h
How it was run: as §3

[26] = system: SK-BR-3; details: 72 h
How it was run: as §3

[27] = system: HCC1143; details: 72 h
How it was run: as §3

[28] = system: MCF-10A; details: 72 h
How it was run: as §3

[29] = system: MDA-MB-468; details: 72 h
How it was run: as §3

[30] = system: BT-549; details: 72 h
How it was run: as §3

[31] = system: CAL-51; details: 72 h; remark: listed apart in the source
How it was run: as §3

[32] = system: BT-474; details: 72 h
How it was run: as §3

[33] = system: CAL-120; details: 72 h
How it was run: as §3

[34] = system: MDA-MB-231; details: 72 h
How it was run: as §3

[35] = system: CAL-85-1; assay: drug sensitivity score (DSS), CellTox Green (DSS (AUC-based score)); higher = stronger drug effect (viability inhibition or cytotoxicity); extreme values may be limits of the assay; details: incubation time: 72 h
How it was run: as §1

[36] = system: MDA-MB-436; details: 72 h
How it was run: as §3

| SMILES | EC50, CellTiter-Blue viability [19] [nM] | EC50, CellTiter-Glo [26] [nM] | EC50, CellTiter-Glo [27] [nM] | EC50, CellTiter-Glo [29] [nM] | EC50, CellTiter-Glo [30] [nM] | EC50, CellTiter-Glo [32] [nM] | EC50, CellTiter-Glo [34] [nM] | EC50, CellTiter-Glo [36] [nM] | drug sensitivity score [1] | drug sensitivity score [2] | drug sensitivity score [3] | drug sensitivity score [4] | drug sensitivity score [5] | drug sensitivity score [6] | drug sensitivity score [7] | drug sensitivity score [8] | drug sensitivity score [9] | drug sensitivity score [10] | drug sensitivity score [11] | drug sensitivity score [12] | drug sensitivity score [13] | drug sensitivity score [14] | drug sensitivity score [15] | drug sensitivity score [16] | drug sensitivity score [17] | EC50, CellTiter-Blue viability [18] [nM] | EC50, CellTiter-Blue viability [20] [nM] | EC50, CellTiter-Blue viability [21] [nM] | EC50, CellTiter-Blue viability [22] [nM] | EC50, CellTiter-Blue viability [23] [nM] | EC50, CellTiter-Glo [24] [nM] | EC50, CellTiter-Glo [25] [nM] | EC50, CellTiter-Glo [28] [nM] | EC50, CellTiter-Glo [31] [nM] | EC50, CellTiter-Glo [33] [nM] | drug sensitivity score [35] |
| --- | --- | --- | --- | --- | --- | --- | --- | --- | --- | --- | --- | --- | --- | --- | --- | --- | --- | --- | --- | --- | --- | --- | --- | --- | --- | --- | --- | --- | --- | --- | --- | --- | --- | --- | --- | --- |
| O=C(Nc1c[nH]nc1-c1nc2ccc(CN3CCOCC3)cc2[nH]1)NC1CC1 [AT9283] | 245 | 933 | 121 | 28.4 | 406 | 74.7 | 125 | – | 0 | 0 | 0 | 0 | 0 | 0 | 0 | 0 | 0 | 13.2 | 0 | 14 | 0 | 0 | 3.42 | 14.3 | 0.649 | 109 | 1370 | 901 | 771 | 555 | 149 | 191 | 102 | 2.81 | 146 | – |
| Cn1cc(CNCC2CCN(c3ncc(C(=O)NO)cn3)CC2)c2ccccc21 | 4.36 | – | – | – | – | – | – | – | – | – | – | – | – | – | – | – | – | – | – | – | – | – | – | – | – | 14.3 | 11.9 | 17.2 | 18.2 | 62.1 | – | – | – | – | – | – |
| COc1cc(CCc2cc(NC(=O)c3ccc(N4CC(C)NC(C)C4)cc3)n[nH]2)cc(OC)c1 (configuration not stated) [AZD4547] | 310 | – | – | – | > 1000 | – | – | – | 0 | 0 | 0.783 | 0 | 0 | 2.76 | 0 | 3.67 | 0 | 0 | 0 | 0 | 0 | 0 | 0.0106 | 0 | 0 | 536 | 632 | 529 | – | 548 | – | 5.91 | 91.2 | – | 68.8 | 0 |
| CC(=O)OC[C@H]1O[C@@H]([S-])[C@H](OC(C)=O)[C@@H](OC(C)=O)[C@@H]1OC(C)=O.CCP(CC)CC.[Au+] [Auranofin] | – | 1730 | 559 | 140 | 386 | 2390 | 1010 | 560 | 0 | 1.98 | 0.881 | 0 | 1.22 | 6.27 | 0 | 0.33 | 0 | 9.05 | 4.41 | 3.46 | 3.42 | 4.79 | 0.776 | 3.16 | 0 | – | – | – | – | – | 1870 | 1460 | 1630 | 199 | 2490 | 4.88 |

Second part, led by results:

| EC50, CellTiter-Blue viability [19] [nM] | EC50, CellTiter-Glo [26] [nM] | EC50, CellTiter-Glo [27] [nM] | EC50, CellTiter-Glo [29] [nM] | EC50, CellTiter-Glo [30] [nM] | EC50, CellTiter-Glo [32] [nM] | EC50, CellTiter-Glo [34] [nM] | EC50, CellTiter-Glo [36] [nM] | SMILES | drug sensitivity score [1] | drug sensitivity score [2] | drug sensitivity score [3] | drug sensitivity score [4] | drug sensitivity score [5] | drug sensitivity score [6] | drug sensitivity score [7] | drug sensitivity score [8] | drug sensitivity score [9] | drug sensitivity score [10] | drug sensitivity score [11] | drug sensitivity score [12] | drug sensitivity score [13] | drug sensitivity score [14] | drug sensitivity score [15] | drug sensitivity score [16] | drug sensitivity score [17] | EC50, CellTiter-Blue viability [18] [nM] | EC50, CellTiter-Blue viability [20] [nM] | EC50, CellTiter-Blue viability [21] [nM] | EC50, CellTiter-Blue viability [22] [nM] | EC50, CellTiter-Blue viability [23] [nM] | EC50, CellTiter-Glo [24] [nM] | EC50, CellTiter-Glo [25] [nM] | EC50, CellTiter-Glo [28] [nM] | EC50, CellTiter-Glo [31] [nM] | EC50, CellTiter-Glo [33] [nM] | drug sensitivity score [35] |
| --- | --- | --- | --- | --- | --- | --- | --- | --- | --- | --- | --- | --- | --- | --- | --- | --- | --- | --- | --- | --- | --- | --- | --- | --- | --- | --- | --- | --- | --- | --- | --- | --- | --- | --- | --- | --- |
| 212 | – | – | – | – | – | – | – | CS(=O)(=O)N1CCN(Cc2cc3nc(-c4cccc5[nH]ncc45)nc(N4CCOCC4)c3s2)CC1 [GDC-0941] | – | – | – | – | – | – | – | – | – | – | – | – | – | – | – | – | – | 5650 | 960 | 1070 | 156 | 569 | – | – | – | – | – | – |
| – | 253 | 2600 | 3040 | 1410 | 1710 | 2960 | 6050 | CS(=O)(=O)N1CCN(Cc2cc3nc(-c4cccc5[nH]ncc45)nc(N4CCOCC4)c3s2)CC1 [Pictilisib] | 0 | 0 | 9.53 | 0 | 4.88 | 0 | 0 | 0 | 7.08 | 0 | 0 | 4.02 | 1.54 | 0 | 0 | 0 | 0 | – | – | – | – | – | – | 1580 | 397 | 1230 | 3150 | 3.76 |
| 457 | 574 | 768 | 141 | 1190 | 9160 | 7050 | 378 | CC[C@@]1(O)C(=O)OCc2c1cc1n(c2=O)Cc2cc3c(CN(C)C)c(O)ccc3nc2-1 [Topotecan] | 0 | 0 | 24.6 | 2.71 | 2.66 | 0.486 | 8.04 | 0 | 1.98 | 8.87 | 0 | 19.5 | 0.158 | 3.78 | 3.76 | 10.2 | 0 | 118 | 63.7 | 613 | > 1000 | 362 | 496 | – | 5600 | 785 | 4820 | 7.11 |
